Tested on: LG0567-F671-PDC KRAS tumor spheroid viability
Assay: Anticancer human tumor LG0567-F671-PDC patient-derived lung adenocarcinoma cell line growth inhibition [KRAS2]
Conditions: spheroids with HUVEC and MSC; for IC50: curve of first compound; for viability, T/C: stronger effect = lower value
Procedure, shortened: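 KRAS-mutant tumor cells were grown as spheroids with HUVEC endothelial cells and human MSCs as stroma. Targeted agents were tested alone and with KRAS pathway inhibitors. Doses started at or near clinical Cmax, or 10 microM, descending half-log.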

[1] = second compound 0.1 µM, first compound 0.0316 µM
[2] = second compound 0.1 µM, first compound 0.1 µM
[3] = second compound 0.1 µM, first compound 0.316 µM
[4] = second compound 0.1 µM, first compound 1 µM
[5] = second compound 0.1 µM, first compound 3.16 µM
[6] = second compound 0.1 µM, first compound 10 µM
[7] = second compound 0.316 µM, first compound 0.0316 µM
[8] = second compound 0.316 µM, first compound 0.1 µM
[9] = second compound 0.316 µM, first compound 0.316 µM
[10] = second compound 0.316 µM, first compound 1 µM
[11] = second compound 0.316 µM, first compound 3.16 µM
[12] = second compound 0.316 µM, first compound 10 µM
[13] = second compound 1 µM, first compound 0.0316 µM
[14] = second compound 1 µM, first compound 0.1 µM
[15] = second compound 1 µM, first compound 0.316 µM
[16] = second compound 1 µM, first compound 1 µM
[17] = second compound 1 µM, first compound 3.16 µM
[18] = second compound 1 µM, first compound 10 µM
[19] = second compound 3.16 µM, first compound 0.0316 µM
[20] = second compound 3.16 µM, first compound 0.1 µM
[21] = second compound 3.16 µM, first compound 0.316 µM
[22] = second compound 3.16 µM, first compound 1 µM
[23] = second compound 3.16 µM, first compound 3.16 µM
[24] = second compound 3.16 µM, first compound 10 µM
[25] = second compound 10 µM, first compound 0.0316 µM
[26] = second compound 10 µM, first compound 0.1 µM
[27] = second compound 10 µM, first compound 0.316 µM
[28] = second compound 10 µM, first compound 1 µM
[29] = second compound 10 µM, first compound 3.16 µM
[30] = second compound 10 µM, first compound 10 µM
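Also: drug exposure lasted seven days after spheroids formed for three days.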
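For viability, T/C in this document: 100% = DMSO vehicle control viability.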

| Structure (SMILES) | IC50 (second compound 0.1 µM) | IC50 (second compound 0.316 µM) | IC50 (second compound 1 µM) | IC50 (second compound 3.16 µM) | IC50 (second compound 10 µM) | viability, T/C [1] | viability, T/C [2] | viability, T/C [3] | viability, T/C [4] | viability, T/C [5] | viability, T/C [6] | viability, T/C [7] | viability, T/C [8] | viability, T/C [9] | viability, T/C [10] | viability, T/C [11] | viability, T/C [12] | viability, T/C [13] | viability, T/C [14] | viability, T/C [15] | also measured |
| --- | --- | --- | --- | --- | --- | --- | --- | --- | --- | --- | --- | --- | --- | --- | --- | --- | --- | --- | --- | --- | --- |
| COc1cc2nccc(Oc3ccc(NC(=O)C4(C(=O)Nc5ccc(F)cc5)CC4)cc3)c2cc1OC + COc1cc2nc(C)nc(NC(C)c3cc(N)cc(C(F)(F)F)c3)c2cc1OC1CCOC1 | > 10000 nM | < 31.6 nM | < 31.6 nM | 204 nM | 175 nM | 78.6% | 71.5% | 56.5% | 32.8% | 101% | 95.6% | 61.5% | 58.6% | 45.4% | 25.6% | 87.3% | 74% | 43.8% | 53% | 42.7% | viability, T/C [16]: 20.9%; viability, T/C [17]: 79.8%; viability, T/C [18]: 53.3%; viability, T/C [19]: 63.7%; viability, T/C [20]: 62%; viability, T/C [21]: 42.1%; viability, T/C [22]: 24.8%; viability, T/C [23]: 9.35%; viability, T/C [24]: 72.6%; viability, T/C [25]: 71.7%; viability, T/C [26]: 54.2%; viability, T/C [27]: 49.2%; viability, T/C [28]: 37.4%; viability, T/C [29]: 1.24%; viability, T/C [30]: 78.7% |
| CC1(C)CCC(CN2CCN(c3ccc(C(=O)NS(=O)(=O)c4ccc(NCC5CCOCC5)c([N+](=O)[O-])c4)c(Oc4cnc5[nH]ccc5c4)c3)CC2)=C(c2ccc(Cl)cc2)C1 + COc1cc2nc(C)nc(NC(C)c3cc(N)cc(C(F)(F)F)c3)c2cc1OC1CCOC1 | 1510 nM | 1360 nM | 1360 nM | 1220 nM | 640 nM | 73.5% | 67.3% | 59% | 68.8% | 18.8% | 11.7% | 67.5% | 66.5% | 61.2% | 59.6% | 25% | 7.5% | 69% | 73.3% | 72.6% | viability, T/C [16]: 58.7%; viability, T/C [17]: 24.1%; viability, T/C [18]: 3.67%; viability, T/C [19]: 70.2%; viability, T/C [20]: 70.7%; viability, T/C [21]: 62.8%; viability, T/C [22]: 57.8%; viability, T/C [23]: 15.6%; viability, T/C [24]: 5.87%; viability, T/C [25]: 81.3%; viability, T/C [26]: 76.5%; viability, T/C [27]: 63%; viability, T/C [28]: 42.7%; viability, T/C [29]: 14.1%; viability, T/C [30]: 1.67% |
| CC(C)NCC(C(=O)N1CCN(c2ncnc3c2C(C)CC3O)CC1)c1ccc(Cl)cc1 (stereo not given) + C=CC(=O)N1CCN(c2nc(=O)n(-c3c(C)ccnc3C(C)C)c3nc(-c4c(O)cccc4F)c(F)cc23)C(C)C1 | < 31.6 nM | < 31.6 nM | < 31.6 nM | < 31.6 nM | < 31.6 nM | 31.4% | 25.9% | 19.8% | 14% | 14.5% | 12.8% | 26.5% | 28.5% | 20.9% | 13.7% | 13.7% | 10.6% | 30.6% | 26.5% | 17% | viability, T/C [16]: 15.9%; viability, T/C [17]: 14.4%; viability, T/C [18]: 12.6%; viability, T/C [19]: 29.9%; viability, T/C [20]: 21.2%; viability, T/C [21]: 19.9%; viability, T/C [22]: 19.1%; viability, T/C [23]: 13.3%; viability, T/C [24]: 11.3%; viability, T/C [25]: 25.8%; viability, T/C [26]: 17%; viability, T/C [27]: 15.6%; viability, T/C [28]: 13.3%; viability, T/C [29]: 15%; viability, T/C [30]: 11% |
| CC(C)NCC(C(=O)N1CCN(c2ncnc3c2C(C)CC3O)CC1)c1ccc(Cl)cc1 (stereo not given) + COc1cc2nc(C)nc(NC(C)c3cc(N)cc(C(F)(F)F)c3)c2cc1OC1CCOC1 | 484 nM | 467 nM | 216 nM | 415 nM | 50.7 nM | 75.4% | 69.1% | 56.2% | 42% | 14.1% | 33.5% | 75.8% | 65.2% | 59.1% | 33.9% | 8.71% | 23.5% | 71.5% | 58.5% | 44% | viability, T/C [16]: 32.2%; viability, T/C [17]: 7.19%; viability, T/C [18]: 2.61%; viability, T/C [19]: 60.1%; viability, T/C [20]: 58.3%; viability, T/C [21]: 66.4%; viability, T/C [22]: 12%; viability, T/C [23]: 5.68%; viability, T/C [24]: 19.6%; viability, T/C [25]: 56.7%; viability, T/C [26]: 39.8%; viability, T/C [27]: 21.6%; viability, T/C [28]: 5.09%; viability, T/C [29]: 3.01%; viability, T/C [30]: 4.23% |

Reference: PubChem BioAssay AID1963856 (Molecular Pharmacology Branch, DTP, NCI, 2024)
